Source: patent publication US4212862A, “O,O-Diaryl-1-acyloxy-2,2,2-trichloroethylphosphonates and fungicides based thereon” (priority 1978, dated 1980)
“And” between values parts separate entries of the source, which are not always exact repeats. Identical values can stand only once. Like-named read-outs stand apart in the source and are kept apart here.

How the values were obtained:
[1] = test system: spores of Piricularia oryzae Cav.; assay type: cell-based; conditions: for Concentration causing 50% death of spores: 24 hours
[2] = test system: rust diseases of cereal crops; test: Activity against rust diseases of cereal crops (general statements); assay type: in vivo
[3] = test system: stalk rust (Puccinia graminis f. tritici); assay type: in vivo; conditions: in vivo
[4] = test system: stalk rust of wheat (Puccinia graminis); assay type: in vivo; conditions: in vivo
[5] = Acute peroral toxicity for warm-blooded animals (LD50, LD90); assay type: in vivo, white mice; conditions: mouse, in vivo, po
Experimental: (§1) Toxicity (LD50) was evaluated on males and females of white mice with peroral administration of the compounds. A portion of the test compound was mixed with the emulsifier Twin-20 and diluted with distilled water to the required working concentration. Administration of the preparation was effected by means of a metal probe and syringe directly into the stomach of test animals 2-3 hours after feeding. The tests were performed using several doses, 6 animals per each dose. Subsequent observation was effected for two weeks.

[6] = test system: white mice; test: as above; assay type: in vivo; conditions: peroral
Experimental: as §1

[7] = test system: apple scab (Venturia inaequalis); conditions: in vivo
[8] = test system: wheat plants
[9] = test system: stalk rust (Puccinia graminis f. tritici); assay type: in vivo; conditions: for Plant injury / Weight of 1,000 grains: Table 5, Moscow region, spring wheat Krasnozernaja, 3 sprayings
[10] = test system: rust diseases of cereal crops; conditions: prior art; cited from earlier work
[11] = Table 2, peroral, read-out: LD50 for white mice
[12] = seeds after storage of grains for one year

Row | SMILES | Percentage of plants injured with rust, 1-st evaluation [3] [%] | Percentage of plants injured with rust, 2-nd evaluation [3] [%] | Weight of 1,000 grains [3] [g] | Yield [3] [c/ha] | Percentage of injury lowered [4] | LD50 at 336 h [5, 11] [mg/kg] | further results
1 | CCOP(=O)(OCC)SCc1ccccc1 [kitacin, O,O-diethyl-S-benzylthiophosphate, reference compound] |  |  |  |  |  |  | Concentration causing 50% death of spores [1]: 28.6 mg/L
2 | CC(=O)OC(C(Cl)(Cl)Cl)P(=O)(Oc1ccccc1)Oc1ccccc1 (stereo not drawn) [I, O,O-diphenyl-1-acetoxy-2,2,2-trichloroethylphosphonate] | 0.5 | 7.0 | 18.7 | 17.40 | 98-100% and 70-97% | 3500 | efficiency of suppressing spores relative to kitacin [1]: about 40 times; superiority over kitacin in respect of activity [1]: about 50 times; Concentration causing 50% death of spores [1]: 0.69 mg/L; period of fungicidal effect as compared to zineb ([2]; compared to zineb): longer period of a fungicidal effect as compared to zineb; protection of cereal crops from rust ([2]; even at a high level of infection): substantially completely protect cereal crops from rust; increase of the grain yield ([2]; high-volume spraying and USVS at 5 to 8 l/ha): up to 24 c/ha; efficiency compared with prior art anti-rust compositions ([2]; including zineb and hydroxycarboxine): superior over the prior art anti-rust fungicidal compositions including zineb and hydroxycarboxine; LD50 at 336 h ([5]; Table 14, female mice, peroral, read-out: LD50 with trusty limits): 3500 mg/kg; LD50 at 336 h ([5]; white mice, peroral administration, read-out: acute toxicity): ~3500 mg/kg; LD90 with trusty limits ([6]; Table 14, female mice): 8,200 mg/kg; protection of the apple tree from scab [7]: complete protection; effect on yield of wheat grain ([8]; even at 8-times the increase of the dose): does not lower the yield of wheat grain; germination power [8, 12]: 99.5%; sprouting energy [8, 12]: 98.5%
3 | CCCCCCC(=O)OC(C(Cl)(Cl)Cl)P(=O)(Oc1ccc(-c2ccccc2)cc1)Oc1ccc(-c2ccccc2)cc1 (stereo not drawn) [XLIX] |  |  |  |  | 49% |  | LD50 for white mice ([6]; Table 2, 20160 min): > 1,000 mg/kg
4 | CC1=C(C(=O)Nc2ccccc2)S(=O)(=O)CCO1 [Hydroxycarboxine, 1,4-dioxide-2,3-dihydro-6-methyl-5-phenylcarbamoyl-1,4-oxathiine] |  |  |  |  |  |  | Plant injury ([9]; 1.5 kg/ha a.p.): 21.7%; Weight of 1,000 grains ([9]; 1.5 kg/ha a.p.): 12.0 g; Plant injury ([9]; 3.0 kg/ha a.p.): 16.1%; Weight of 1,000 grains ([9]; 3.0 kg/ha a.p.): 12.4 g; Yield ([9]; in vivo): 9.5 c/ha and 9.3 c/ha; efficiency under different agroclimatic conditions including frequent heavy rains ([2]; frequent heavy rains): low-effective; activity against rust diseases [10]: efficient in killing rust fungi
5 | CCCC(=O)OC(C(Cl)(Cl)Cl)P(=O)(Oc1cccc(C)c1)Oc1cccc(C)c1 (stereo not drawn) [XIV] | 0.5 | 7.0 | 17.2 | 12.00 | 99% and 92% | > 1000 | 
6 | CCCCC(CC)C(=O)OC(C(Cl)(Cl)Cl)P(=O)(Oc1ccccc1)Oc1ccccc1 (stereo not drawn) [V] | 0.5 | 13.0 | 14.8 | 9.50 | 74% and 61% | > 1000 | 
7 | CCCC(=O)OC(C(Cl)(Cl)Cl)P(=O)(Oc1cc(C)cc(C)c1)Oc1cc(C)cc(C)c1 (stereo not drawn) [XXVIII] | 0.5 | 7.0 | 16.6 | 11.60 | 73% | > 1000 | 
8 | CCC(=O)OC(C(Cl)(Cl)Cl)P(=O)(Oc1cc(C)cc(C)c1)Oc1cc(C)cc(C)c1 (stereo not drawn) [XXVII] | 0.5 | 10.5 | 17.1 | 11.50 | 92% | > 1000 | 
9 | CCCC(=O)OC(C(Cl)(Cl)Cl)P(=O)(Oc1ccc(C)cc1)Oc1ccc(C)cc1 (stereo not drawn) [XX] | 0.5 | 7.5 | 18.2 | 13.45 | 97% | > 1000 | 
10 | CCC(=O)OC(C(Cl)(Cl)Cl)P(=O)(Oc1ccc(Cl)cc1)Oc1ccc(Cl)cc1 (stereo not drawn) [XXXI] | 0.5 | 8.0 | 18.0 | 13.30 | 82% and 59% | > 1000 | 
11 | CCC(=O)OC(C(Cl)(Cl)Cl)P(=O)(Oc1cccc(C)c1)Oc1cccc(C)c1 (stereo not drawn) [XIII] | 0.5 | 10.0 | 16.9 | 12.05 | 98% and 85% | > 1000 | 
12 | CCCCCCCCc1ccc(OP(=O)(Oc2ccc(CCCCCCCC)cc2)C(OC(C)=O)C(Cl)(Cl)Cl)cc1 (stereo not drawn) [XXIV] | 0.5 | 12.0 | 13.5 | 8.00 | 62% and 35% | > 1000 | 
13 | CCCC(=O)OC(C(Cl)(Cl)Cl)P(=O)(Oc1ccccc1)Oc1ccccc1 (stereo not drawn) [III] | 0.5 | 7.0 | 18.4 | 14.00 | 68% and 51% | > 500 | 
14 | Cc1ccc(OP(=O)(Oc2ccc(C)cc2)C(OC(=O)c2ccccc2)C(Cl)(Cl)Cl)cc1 (stereo not drawn) [XXIII] | 0.5 | 8.0 | 18.1 | 13.30 | 89% and 79% | > 1000 | 
15 | CCC(=O)OC(C(Cl)(Cl)Cl)P(=O)(Oc1ccccc1C)Oc1ccccc1C (stereo not drawn) [VIII] | 0.5 | 8.5 | 15.3 | 10.15 | 96% and 76% | > 1000 | 
16 | O=C(OC(C(Cl)(Cl)Cl)P(=O)(Oc1ccccc1)Oc1ccccc1)c1ccccc1 (stereo not drawn) [VI] | 0.5 | 8.5 | 16.4 | 11.30 | 99% and 98% | > 1000 | 
17 | CC(=O)OC(C(Cl)(Cl)Cl)P(=O)(Oc1cc(C)cc(C)c1)Oc1cc(C)cc(C)c1 (stereo not drawn) [XXVI] | 0.5 | 10.0 | 16.7 | 11.70 | 84% | > 1000 | 
